# Laboratory results: the supplement of paper PMC10307832
# Experiments:
# Experiment in all cases: relative viability (nuclei count vs DMSO), 5 days (fraction); higher = more cells survive
# EPLC-272H = test system: EPLC-272H
# Method in brief: (§1)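 Relative viability equals treated-well nuclei counts divided by vehicle-well nuclei counts. Counts came from 4× images of lung cancer cell lines grown in 1536-well plates for 5 days after pin-tool dosing on the day after seeding. Dosing used one drug alone or a fixed anchor-drug dose plus five library-drug doses (not always all listed) in √10 steps, and values are medians of duplicate plates.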
# COR-L 105 = test system: COR-L 105
# Method in brief: as §1
# NCI-H2085 = test system: NCI-H2085
# Method in brief: as §1
# HCC-827 = test system: HCC-827
# Method in brief: as §1
# HCC-44 = test system: HCC-44
# Method in brief: as §1
# NCI-H2087 = test system: NCI-H2087
# Method in brief: as §1
# NCI-H1666 = test system: NCI-H1666
# Method in brief: as §1
# NCI-H1437 = test system: NCI-H1437
# Method in brief: as §1
# NCI-H650 = test system: NCI-H650
# Method in brief: as §1
# 201T = test system: 201T
# Method in brief: as §1
# NCI-H1975 = test system: NCI-H1975
# Method in brief: as §1
# LCLC-97TM1 = test system: LCLC-97TM1
# Method in brief: as §1
# BEN = test system: BEN
# Method in brief: as §1
# NCI-H647 = test system: NCI-H647
# Method in brief: as §1
# NCI-H2342 = test system: NCI-H2342
# Method in brief: as §1
# LOU-NH91 = test system: LOU-NH91
# Method in brief: as §1
# LU99A = test system: LU99A
# Method in brief: as §1
# H3255 = test system: H3255
# Method in brief: as §1
# NCI-H2170 = test system: NCI-H2170
# Method in brief: as §1
# EKVX = test system: EKVX
# Method in brief: as §1
# PC-3 [JPC-3] = test system: PC-3 [JPC-3]
# Method in brief: as §1
# SW 1573 = test system: SW 1573
# Method in brief: as §1
smiles,measurement,setting,value
O=c1cc(N2CCOCC2)oc2c(-c3cccc4c3sc3ccccc34)cccc12 + Nc1ncn([C@H]2C[C@H](O)[C@@H](CO)O2)c(=O)n1 [Decitabine] (partner 2 µM),relative viability,EPLC-272H; first compound 0.01 µM,0.392
same,relative viability,EPLC-272H; first compound 0.03162 µM,0.398
same,relative viability,EPLC-272H; first compound 0.1 µM,0.329
same,relative viability,EPLC-272H; first compound 0.3162 µM,0.359
same,relative viability,EPLC-272H; first compound 1 µM,0.376
same,relative viability,COR-L 105; first compound 0.01 µM,0.622
same,relative viability,COR-L 105; first compound 0.03162 µM,0.7
same,relative viability,COR-L 105; first compound 0.1 µM,0.746
same,relative viability,COR-L 105; first compound 0.3162 µM,0.769
same,relative viability,COR-L 105; first compound 1 µM,0.667
same,relative viability,NCI-H2085; first compound 0.01 µM,0.591
same,relative viability,NCI-H2085; first compound 0.03162 µM,0.519
same,relative viability,NCI-H2085; first compound 0.1 µM,0.526
same,relative viability,NCI-H2085; first compound 0.3162 µM,0.614
same,relative viability,NCI-H2085; first compound 1 µM,0.502
same,relative viability,HCC-827; first compound 0.01 µM,0.291
same,relative viability,HCC-827; first compound 0.03162 µM,0.329
same,relative viability,HCC-827; first compound 0.1 µM,0.296
same,relative viability,HCC-827; first compound 0.3162 µM,0.314
same,relative viability,HCC-827; first compound 1 µM,0.161
same,relative viability,HCC-44; first compound 0.01 µM,0.962
same,relative viability,HCC-44; first compound 0.03162 µM,0.993
same,relative viability,HCC-44; first compound 0.1 µM,0.97
same,relative viability,HCC-44; first compound 0.3162 µM,0.96
same,relative viability,HCC-44; first compound 1 µM,0.986
same,relative viability,NCI-H2087; first compound 0.01 µM,0.261
same,relative viability,NCI-H2087; first compound 0.03162 µM,0.257
same,relative viability,NCI-H2087; first compound 0.1 µM,0.336
same,relative viability,NCI-H2087; first compound 0.3162 µM,0.306
same,relative viability,NCI-H2087; first compound 1 µM,0.297
same,relative viability,NCI-H1666; first compound 0.01 µM,0.71
same,relative viability,NCI-H1666; first compound 0.03162 µM,0.762
same,relative viability,NCI-H1666; first compound 0.1 µM,0.713
same,relative viability,NCI-H1666; first compound 0.3162 µM,0.736
same,relative viability,NCI-H1666; first compound 1 µM,0.677
same,relative viability,NCI-H1437; first compound 0.01 µM,0.587
same,relative viability,NCI-H1437; first compound 0.03162 µM,0.562
same,relative viability,NCI-H1437; first compound 0.1 µM,0.638
same,relative viability,NCI-H1437; first compound 0.3162 µM,0.549
same,relative viability,NCI-H1437; first compound 1 µM,0.625
same,relative viability,NCI-H650; first compound 0.01 µM,0.319
same,relative viability,NCI-H650; first compound 0.03162 µM,0.384
same,relative viability,NCI-H650; first compound 0.3162 µM,0.338
same,relative viability,NCI-H650; first compound 1 µM,0.303
same,relative viability,201T; first compound 0.01 µM,0.843
same,relative viability,201T; first compound 0.03162 µM,0.863
same,relative viability,201T; first compound 0.1 µM,0.83
same,relative viability,201T; first compound 0.3162 µM,0.86
same,relative viability,201T; first compound 1 µM,0.818
same,relative viability,NCI-H1975; first compound 0.01 µM,0.438
same,relative viability,NCI-H1975; first compound 0.03162 µM,0.4
same,relative viability,NCI-H1975; first compound 0.1 µM,0.394
same,relative viability,NCI-H1975; first compound 0.3162 µM,0.371
same,relative viability,NCI-H1975; first compound 1 µM,0.353
same,relative viability,LCLC-97TM1; first compound 0.01 µM,0.261
same,relative viability,LCLC-97TM1; first compound 0.03162 µM,0.227
same,relative viability,LCLC-97TM1; first compound 0.1 µM,0.227
same,relative viability,LCLC-97TM1; first compound 0.3162 µM,0.252
same,relative viability,LCLC-97TM1; first compound 1 µM,0.235
same,relative viability,BEN; first compound 0.01 µM,0.73
same,relative viability,BEN; first compound 0.03162 µM,0.748
same,relative viability,BEN; first compound 0.1 µM,0.589
same,relative viability,BEN; first compound 0.3162 µM,0.76
same,relative viability,BEN; first compound 1 µM,0.664
same,relative viability,NCI-H647; first compound 0.01 µM,0.318
same,relative viability,NCI-H647; first compound 0.03162 µM,0.356
same,relative viability,NCI-H647; first compound 0.1 µM,0.382
same,relative viability,NCI-H647; first compound 0.3162 µM,0.419
same,relative viability,NCI-H647; first compound 1 µM,0.371
same,relative viability,NCI-H2342; first compound 0.01 µM,0.631
same,relative viability,NCI-H2342; first compound 0.03162 µM,0.652
same,relative viability,NCI-H2342; first compound 0.1 µM,0.774
same,relative viability,NCI-H2342; first compound 0.3162 µM,0.726
same,relative viability,NCI-H2342; first compound 1 µM,0.672
same,relative viability,LOU-NH91; first compound 0.01 µM,0.774
same,relative viability,LOU-NH91; first compound 0.03162 µM,0.794
same,relative viability,LOU-NH91; first compound 0.1 µM,0.83
same,relative viability,LOU-NH91; first compound 0.3162 µM,0.827
same,relative viability,LOU-NH91; first compound 1 µM,0.784
same,relative viability,LU99A; first compound 0.01 µM,0.906
same,relative viability,LU99A; first compound 0.03162 µM,1.01
same,relative viability,LU99A; first compound 0.1 µM,0.993
same,relative viability,LU99A; first compound 0.3162 µM,0.827
same,relative viability,LU99A; first compound 1 µM,0.978
same,relative viability,H3255; first compound 0.01 µM,0.598
same,relative viability,H3255; first compound 0.03162 µM,0.715
same,relative viability,H3255; first compound 0.1 µM,0.56
same,relative viability,H3255; first compound 0.3162 µM,0.604
same,relative viability,H3255; first compound 1 µM,0.533
same,relative viability,NCI-H2170; first compound 0.01 µM,0.472
same,relative viability,NCI-H2170; first compound 0.03162 µM,0.447
same,relative viability,NCI-H2170; first compound 0.1 µM,0.475
same,relative viability,NCI-H2170; first compound 0.3162 µM,0.457
same,relative viability,NCI-H2170; first compound 1 µM,0.461
same,relative viability,EKVX; first compound 0.01 µM,0.355
same,relative viability,EKVX; first compound 0.03162 µM,0.321
same,relative viability,EKVX; first compound 0.1 µM,0.37
same,relative viability,EKVX; first compound 0.3162 µM,0.282
same,relative viability,EKVX; first compound 1 µM,0.336
same,relative viability,PC-3 [JPC-3]; first compound 0.01 µM,0.809
same,relative viability,PC-3 [JPC-3]; first compound 0.03162 µM,0.859
same,relative viability,PC-3 [JPC-3]; first compound 0.1 µM,0.874
same,relative viability,PC-3 [JPC-3]; first compound 0.3162 µM,0.814
same,relative viability,PC-3 [JPC-3]; first compound 1 µM,0.811
same,relative viability,SW 1573; first compound 0.01 µM,0.625
same,relative viability,SW 1573; first compound 0.03162 µM,0.577
same,relative viability,SW 1573; first compound 0.1 µM,0.529
same,relative viability,SW 1573; first compound 0.3162 µM,0.409
same,relative viability,SW 1573; first compound 1 µM,0.665
